{"source": "patent US20090222217A1", "about": "“Method of calculating environment risk of a chemical in soil” (AMSTED Industries Inc., priority 2008, published 2009)", "key": {"[1]": {"conditions": "sand, Foc 0.0003 mg/mg; Kd=Foc×Koc", "protocol": "To obtain a value to represent the mobility of each compound, two variables are used: Henry's Law constant (H), which focuses on the physical chemistry of the chemical and the retardation factor (R), which focuses on the physical and chemical characteristics of the geological environment. The retardation factor was calculated by first calculating the distribution coefficient using Equation 1.\nValues for the organic carbon partition coefficient can be obtained from location-specific testing of soil or from various published sources. And the fraction of organic carbon in soil can be obtained from location-specific testing of soil or from various published sources."}, "[2]": {"conditions": "more conservative of carcinogenic or chronic, oral or dermal pathway; published sources; cited from earlier work"}, "[3]": {"conditions": "M=(H)(R), sand", "from_the_text": "With Henry's Law constant and the retardation factor in place, the mobility of a specific compound is expressed as Equation (4):\nwhere: M=mobility; H=Henry's Law constant; R=retardation factor"}, "[4]": {"conditions": "published sources; cited from earlier work"}, "[5]": {"conditions": "sand, bulk density 1.8 g/cm^3, effective porosity 0.25", "protocol": "Once the distribution coefficient is calculated, the Retardation Factor can be calculated using Equation 2.\nwhere: R is the retardation factor; ρb=bulk density of aquifer matrix (g/cm^3); Kd=distribution coefficient (mL·g^−1); η=effective porosity"}}, "data": [{"smiles": "c1ccccc1", "note": "[benzene]", "values": [{"measurement": "Kd, distribution coefficient", "setting": "[1]", "result": 0.0177, "unit": "mL/g"}, {"measurement": "toxicity value (T)", "setting": "[2]", "result": 0.04, "unit": "mg/kg-day^−1"}, {"measurement": "mobility factor (M)", "setting": "[3]", "result": 0.2576}, {"measurement": "Henry's Law constant (H)", "setting": "[4]", "result": 0.228, "unit": "atm.·mol^−1·m^−3"}, {"measurement": "retardation factor (R)", "setting": "[5]", "result": 1.13}]}]}
